Results on 25 compounds are retold here after US10576062B2, “Carbamoyloxymethyl triazole cyclohexyl acids as LPA antagonists” (Bristol-Myers Squibb Company, priority 2016, dated 2020).

Molecules are shown by their SMILES.

The target of the assay is T1, human LPA1 (Homo sapiens, UniProt Q92633).
T1 construct: expressed in transfected cells; host or cells: Chinese hamster ovary (CHO) cells
T1 sequence (Q92633 whole entry): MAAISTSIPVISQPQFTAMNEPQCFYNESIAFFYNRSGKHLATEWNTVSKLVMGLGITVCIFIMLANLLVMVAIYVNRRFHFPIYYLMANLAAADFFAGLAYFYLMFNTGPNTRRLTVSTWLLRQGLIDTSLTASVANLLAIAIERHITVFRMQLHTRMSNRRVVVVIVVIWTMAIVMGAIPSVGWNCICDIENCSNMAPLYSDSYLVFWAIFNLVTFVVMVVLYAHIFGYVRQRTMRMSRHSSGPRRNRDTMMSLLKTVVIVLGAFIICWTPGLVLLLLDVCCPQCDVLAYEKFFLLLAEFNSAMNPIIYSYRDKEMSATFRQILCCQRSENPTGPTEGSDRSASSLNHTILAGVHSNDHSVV
The experiment in a line: LPA1 functional antagonist assay (LPA-induced calcium flux). It is filed as cell-based. Conditions: CHO cells overexpressing human LPA1; inhibition of calcium flux induced by 10 nM LPA; read-out: hLPA1 IC50. In outline: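 CHO cells overexpressing human LPA1, loaded with calcium dye 30 min at 37° C, were preincubated 20 min at room temperature with compound (0.08 nM–5 μM, 0.5% DMSO) in HBSS/20 mM HEPES/0.1% fatty acid-free BSA.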
For the compound `CCc1nc(-c2nnn(C)c2COC(=O)N2CCC3(CC3)C2)ccc1O[C@H]1CCC[C@H](C(=O)O)C1` [Example 211, (1S,3S)-3-((6-(5-(((5-azaspiro[2.4]heptane-5-carbonyl)oxy)methyl)-1-methyl-1H-1,2,3-triazol-4-yl)-2-ethylpyridin-3-yl)oxy)cyclohexane-1-carboxylic acid], the half-maximal inhibitory concentration (IC50) amounted to 47 nM. Under `CCCCN(C)C(=O)OCc1c(-c2cnc(O[C@H]3CCC[C@H](C(=O)O)C3)cn2)nnn1C` [Example 212, (1S,3S)-3-((5-(5-(((butyl(methyl)carbamoyl)oxy)methyl)-1-methyl-1H-1,2,3-triazol-4-yl)pyrazin-2-yl)oxy)cyclohexane-1-carboxylic acid] stands 40 nM.

Turning to `CN(CC1CC1)C(=O)OCc1c(-c2cnc(O[C@H]3CCC[C@H](C(=O)O)C3)cn2)nnn1C` [Example 213, (1S,3S)-3-((5-(5-((((cyclopropylmethyl)(methyl)carbamoyl)oxy)methyl)-1-methyl-1H-1,2,3-triazol-4-yl)pyrazin-2-yl)oxy)cyclohexane-1-carboxylic acid], the IC50 stood at 1070 nM. To `CN(CC1CCC1)C(=O)OCc1c(-c2cnc(O[C@H]3CCC[C@H](C(=O)O)C3)cn2)nnn1C` [Example 214, (1S,3S)-3-((5-(5-((((cyclobutylmethyl)(methyl)carbamoyl)oxy)methyl)-1-methyl-1H-1,2,3-triazol-4-yl)pyrazin-2-yl)oxy)cyclohexane-1-carboxylic acid] belongs 68 nM.

Take `CN(C(=O)OCc1c(-c2cnc(O[C@H]3CCC[C@H](C(=O)O)C3)cn2)nnn1C)C1CCCC1` [Example 215, (1S,3S)-3-((5-(5-(((cyclopentyl(methyl)carbamoyl)oxy)methyl)-1-methyl-1H-1,2,3-triazol-4-yl)pyrazin-2-yl)oxy)cyclohexane-1-carboxylic acid]: the IC50 stood at 84 nM. To `CCCN(C)C(=O)OCc1c(-c2cnc(O[C@H]3CCC[C@H](C(=O)O)C3)c(C)n2)nnn1C` [Example 218, (1S,3S)-3-((3-methyl-5-(1-methyl-5-(((methyl(propyl)carbamoyl)oxy)methyl)-1H-1,2,3-triazol-4-yl)pyrazin-2-yl)oxy)cyclohexane-1-carboxylic Acid] belongs 194 nM; to `CCCCN(C)C(=O)OCc1c(-c2cnc(O[C@H]3CCC[C@H](C(=O)O)C3)c(C)n2)nnn1C` [Example 219, (1S,3S)-3-((5-(5-(((butyl(methyl)carbamoyl)oxy)methyl)-1-methyl-1H-1,2,3-triazol-4-yl)-3-methylpyrazin-2-yl)oxy)cyclohexane-1-carboxylic acid], 21 nM. Consider `Cc1nc(-c2nnn(C)c2COC(=O)N(C)CC2CC2)cnc1O[C@H]1CCC[C@H](C(=O)O)C1` [Example 220, (1S,3S)-3-((5-(5-((((cyclopropyl-methyl)(methyl)carbamoyl)oxy)methyl)-1-methyl-1H-1,2,3-triazol-4-yl)-3-methyl-pyrazin-2-yl)oxy)cyclohexane-1-carboxylic acid], for which the IC50 stood at 149 nM. To `Cc1nc(-c2nnn(C)c2COC(=O)N(C)CCC(C)C)cnc1O[C@H]1CCC[C@H](C(=O)O)C1` [Example 222, (1S,3S)-3-((5-(5-(((isopentyl(methyl)carbamoyl)oxy)methyl)-1-methyl-1H-1,2,3-triazol-4-yl)-3-methylpyrazin-2-yl)oxy)cyclohexane-1-carboxylic acid] belongs 19 nM; to `CCCCCN(C)C(=O)OCc1c(-c2cnc(O[C@H]3CCC[C@H](C(=O)O)C3)c(C)n2)nnn1C` [Example 223, (1S,3S)-3-((3-methyl-5-(1-methyl-5-(((methyl(pentyl)carbamoyl)oxy)methyl)-1H-1,2,3-triazol-4-yl)pyrazin-2-yl)oxy)cyclohexane-1-carboxylic acid], 56 nM; to `Cc1nc(-c2nnn(C)c2COC(=O)N(C)CC(C)C)cnc1O[C@H]1CCC[C@H](C(=O)O)C1` [Example 224, (1S,3S)-3-((5-(5-(((isobutyl(methyl)carbamoyl)oxy)methyl)-1-methyl-1H-1,2,3-triazol-4-yl)-3-methylpyrazin-2-yl)oxy)cyclohexane-1-carboxylic acid], 121 nM. Under `Cc1nc(-c2nnn(C)c2COC(=O)N(C)CCC2CC2)cnc1O[C@H]1CCC[C@H](C(=O)O)C1` [Example 225, (1S,3S)-3-((5-(5-((((2-cyclopropylethyl)(methyl)carbamoyl)oxy)methyl)-1-methyl-1H-1,2,3-triazol-4-yl)-3-methylpyrazin-2-yl)oxy)cyclohexane-1-carboxylic acid] stands 70 nM; under `Cc1nc(-c2nnn(C)c2COC(=O)N(C)C2CCCC2)cnc1O[C@H]1CCC[C@H](C(=O)O)C1` [Example 226, (1S,3S)-3-((5-(5-(((cyclopentyl(methyl)carbamoyl)oxy)methyl)-1-methyl-1H-1,2,3-triazol-4-yl)-3-methylpyrazin-2-yl)oxy)cyclohexane-1-carboxylic acid], 49 nM; under `Cc1nc(-c2nnn(C)c2COC(=O)N(C)CC2CCCC2)cnc1O[C@H]1CCC[C@H](C(=O)O)C1` [Example 227, (1S,3S)-3-((5-(5-((((cyclopentylmethyl)(methyl)carbamoyl)oxy)methyl)-1-methyl-1H-1,2,3-triazol-4-yl)-3-methylpyrazin-2-yl)oxy)cyclohexane-1-carboxylic acid], 18 nM.

Take `Cc1nc(-c2nnn(C)c2COC(=O)N(C)Cc2ccccc2)cnc1O[C@H]1CCC[C@H](C(=O)O)C1` [Example 228, (1S,3S)-3-((5-(5-(((benzyl(methyl)carbamoyl)oxy)methyl)-1-methyl-1H-1,2,3-triazol-4-yl)-3-methylpyrazin-2-yl)oxy)cyclohexane-1-carboxylic acid]: the IC50 came out at 60 nM. To `Cc1nc(-c2nnn(C)c2COC(=O)N(C)C2CCC2)cnc1O[C@H]1CCC[C@H](C(=O)O)C1` [Example 229, (1S,3S)-3-((5-(5-(((cyclobutyl(methyl)carbamoyl)oxy)methyl)-1-methyl-1H-1,2,3-triazol-4-yl)-3-methylpyrazin-2-yl)oxy)cyclohexane-1-carboxylic acid] belongs 76 nM; to `Cc1nc(-c2nnn(C)c2COC(=O)N(C)CCCF)cnc1O[C@H]1CCC[C@H](C(=O)O)C1` [Example 230, (1S,3S)-3-((5-(5-((((3-fluoropropyl)(methyl)carbamoyl)oxy)methyl)-1-methyl-1H-1,2,3-triazol-4-yl)-3-methylpyrazin-2-yl)oxy)cyclohexane-1-carboxylic acid], 390 nM; to `Cc1nc(-c2nnn(C)c2COC(=O)N(C)CC(C)(C)C)cnc1O[C@H]1CCC[C@H](C(=O)O)C1` [Example 231, (1S,3S)-3-((3-methyl-5-(1-methyl-5-(((methyl(neopentyl)carbamoyl)oxy)methyl)-1H-1,2,3-triazol-4-yl)pyrazin-2-yl)oxy)cyclohexane-1-carboxylic acid], 88 nM. In the case of `Cc1nc(-c2nnn(C)c2COC(=O)N(C)CC(C)(C)F)cnc1O[C@H]1CCC[C@H](C(=O)O)C1` [Example 232, (1S,3S)-3-((5-(5-((((2-fluoro-2-methylpropyl)(methyl)carbamoyl)oxy)methyl)-1-methyl-1H-1,2,3-triazol-4-yl)-3-methylpyrazin-2-yl)oxy)cyclohexane-1-carboxylic acid], the IC50 was found to be 191 nM.

For `Cc1nc(-c2nnn(C)c2COC(=O)N(C)CC2(F)CCC2)cnc1O[C@H]1CCC[C@H](C(=O)O)C1` [Example 233, (1S,3S)-3-((5-(5-(((((1-fluoro-cyclobutyl)methyl)(methyl)carbamoyl)oxy)methyl)-1-methyl-1H-1,2,3-triazol-4-yl)-3-methylpyrazin-2-yl)oxy)cyclohexane-1-carboxylic acid], the IC50 worked out at 122 nM. To `Cc1nc(-c2nnn(C)c2COC(=O)N(C)CC2(F)CCCC2)cnc1O[C@H]1CCC[C@H](C(=O)O)C1` [Example 234, (1S,3S)-3-((5-(5-(((((1-fluorocyclopentyl)methyl)(methyl)carbamoyl)oxy)methyl)-1-methyl-1H-1,2,3-triazol-4-yl)-3-methylpyrazin-2-yl)oxy)cyclohexane-1-carboxylic acid] belongs 72 nM; to `Cc1nc(-c2nnn(C)c2COC(=O)N(C)C[C@@H]2C[C@H]2C)cnc1O[C@H]1CCC[C@H](C(=O)O)C1` [Example 235, (1S,3S)-3-((3-methyl-5-(1-methyl-5-(((methyl(((1R,2R)-2-methylcyclopropyl)methyl)carbamoyl)oxy)methyl)-1H-1,2,3-triazol-4-yl)pyrazin-2-yl)oxy)cyclohexane-1-carboxylic acid], 70 nM. Turning to `Cc1nc(-c2nnn(C)c2COC(=O)N(C)C[C@H]2C[C@@H]2C)cnc1O[C@H]1CCC[C@H](C(=O)O)C1` [Example 236, (1S,3S)-3-((3-methyl-5-(1-methyl-5-(((methyl(((1S,2S)-2-methylcyclopropyl)methyl)carbamoyl)oxy)methyl)-1H-1,2,3-triazol-4-yl)pyrazin-2-yl)oxy)cyclohexane-1-carboxylic acid], the half-maximal inhibitory concentration (IC50) came out at 46 nM. Under `CN(CC1CC1)C(=O)OCc1c(-c2cnc(O[C@H]3CCC[C@H](C(=O)O)C3)c(C(F)(F)F)c2)nnn1C` [Example 237, (1S,3S)-3-((5-(5-((((cyclopropylmethyl)(methyl)carbamoyl)oxy)methyl)-1-methyl-1H-1,2,3-triazol-4-yl)-3-(trifluoromethyl)pyridin-2-yl)oxy)cyclohexane-1-carboxylic acid] stands 2400 nM. To `CN(C(=O)OCc1c(-c2cnc(O[C@H]3CCC[C@H](C(=O)O)C3)c(C(F)(F)F)c2)nnn1C)C1CCCC1` [Example 238, (1S,3S)-3-((5-(5-(((cyclopentyl(methyl)carbamoyl)oxy)methyl)-1-methyl-1H-1,2,3-triazol-4-yl)-3-(trifluoromethyl)pyridin-2-yl)oxy)cyclohexane-1-carboxylic acid] belongs 174 nM.

Broadly, the IC50 is the concentration that gives 50% inhibition.
